# Assay results: US20230277575A1 (priority 2020, published 2023)
# Assays:
# in vitro = conditions: human
# SARS-CoV-2 [1] = assay: SARS-CoV-2 virus production in Vero E6 cells (TCID50); assay type: cell-based; conditions: for antiviral activity (conclusion, in words): SARS-CoV-2; for IC50: Severe acute respiratory syndrome coronavirus 2, Vero C1008, TCID50, Vero E6 cells, MOI 10^−3; for virus production (in words): increased drug concentration, dose response
# Procedure: (§1) Seeding of cells and treatment with compound of interest were performed with each compound in triplicate at 5 concentrations, including negative and positive controls. Infection with SARS-CoV-2 was performed at one MOI (multiplicity of infection). Viral particles were recovered in the supernatant after incubation and quantification using TCID50 (tissue culture infectious dose 50%) and RT-PCR was performed. Toxicity measurement of compounds was made on separate cell lines. D1: cell seeding on 96 wells plate, Vero E6 cells. Growth conditions: medium DMEM high glucose (Dutsher L0104-500, lot MS008A) D2: dilution of compounds was carried out in a mix of 100% DMSO diluted to 50% in PBS (NACL-2) or in PBS at […] to avoid solubility issues of some compounds. Compounds were tested at 5 concentrations, from 10^−4 M to 10^−8 M by serial tenfold dilutions. Infection with SARS-CoV-2 clinical strain was performed to MOI 10^−3. D3: viral titers were determined by TCID50 method and calculated by the Spearman & Kärber algorithm. RT-qPCR on gene E of SARS-CoV-2 was determined by Taqman One-Step RT-qPCR. Infection process: at T0 infection was performed with SARS-CoV-2 MOI 10^−3 (0.001). At T0+1 h virus was removed and the plates were washed with PBS (2×1 mL), 1 mL medium was then added with compound from 100 μM to 10 nM. A 24 h incubation step was carried out. At T0+25 h, 500 μL of supernatant was recovered and TCID50 processing and RT-qPCR were performed. Following 4 additional days of incubation the endpoint was obtained and TCI D50 reading and calculation was performed.
# Vero cells = assay: Toxicity testing on Vero cells; conditions: for CC50: Vero cells, 24 h post treatment
# [2] = Toxicity testing on Vero cells; conditions: African green monkey, Vero cells, CC50, Vero cells, 24 h post treatment
# SARS-CoV-2 [3] = assay: SARS-CoV-2 genome copy number by RT-qPCR on gene E (Vero E6 cells); assay type: cell-based; conditions: for genome copy number (in words): increased drug concentration
# Procedure: as §1
SMILES,CC50 (in vitro),"antiviral activity (conclusion, in words) (SARS-CoV-2 [1])",IC50 (SARS-CoV-2 [1]),virus production (in words) (SARS-CoV-2 [1]),IC50 times lower than that of NACI-1 (SARS-CoV-2 [1]; virus production IC50),CC50 (Vero cells),CC50 at 24 h [2],genome copy number (in words) (SARS-CoV-2 [3]),log decrease in viral production (SARS-CoV-2 [1]; at 10 μM),toxicity observed in virus production test (SARS-CoV-2 [1]; at 100 μM),IC50 times lower than that of Remdesivir (SARS-CoV-2 [1]; virus production IC50),CC50 (Vero cells; listed as clitocine),toxicity on Vero cells (in words) (Vero cells; depending on the concentration used),"IC50 (SARS-CoV-2 [3]; Severe acute respiratory syndrome coronavirus 2, Vero C1008, RT-qPCR on gene E, Vero E6 cells)",log decrease in copy genome (SARS-CoV-2 [3]; at 10 μM),toxicity observed in RT-qPCR test (SARS-CoV-2 [3]; at 100 μM)
"NC(=O)c1ncn([C@@H]2O[C@H](CO)[C@@H](O)[C@H]2O)c1O [Mizoribine, 1-[(2R,3R,4S,5R)-3,4-dihydroxy-5-(hydroxymethyl)oxolan-2-yl]-5-hydroxy-1H-imidazole-4-carboxamide]",850 µM,Potent antiviral activity,0.66 µM,decrease significantly,3 times,191 µM,191 µM,does not impact,–,–,–,–,–,–,–,–
"Nc1ncnc(N[C@@H]2O[C@H](CO)[C@@H](O)[C@H]2O)c1[N+](=O)[O-] [Compound 1, (2R,3R,4S,5R)-2-[(6-amino-5-nitropyrimidin-4-yl)amino]-5-(hydroxymethyl)oxolane-3,4-diol]",108 µM,Potent antiviral activity,0.188 µM,decrease significantly,–,–,3.09 µM,decrease significantly,3 log,some toxicity was observed,5 times,3.09 µM,some degree of toxicity,0.176 µM,~2 log,some toxicity was observed
